Data as given in patent publication US7504400B2, “MTP inhibiting aryl piperydines or piperazines substituted with 5-membered heterocycles” (Janssen Pharmaceutica N.V., priority 2004, dated 2009).

System: Secretion of ApoB
Experiment: Quantification of the secretion of ApoB in HepG2 cells
Format: cell-based
Conditions: Homo sapiens, HepG2, 24 h, 24 hours of incubation with test compound, immunoprecipitation of apoB from medium, read-out: pIC50 value (=-log IC50 value), secretion of ApoB (converted)
How it was run: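 At 70% confluency, HepG2 cells in MEM with 10% FCS received compound or DMSO carrier (0.4% final) for 24 h. Secreted apoB in cleared medium immunoprecipitated with sheep anti-apoB then rabbit anti-sheep antibody (24 h each, 8° C); pellet radioactivity counted by liquid scintillation; IC50 expressed as pIC50.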

IC50 | Compound
316 to 3160 nM | CC(C)n1ncn(-c2ccc(N3CCN(C(C(N)=O)c4ccccc4)CC3)cc2)c1=O (stereo not drawn) [Compound 145]
316 to 3160 nM | COC(=O)C(c1ccccc1)N1CCN(c2ccc(-n3cnn(C(C)C)c3=O)cn2)CC1 (stereo not drawn) [Compound 146]
316 to 3160 nM | CCCNC(=O)C(c1ccccc1)C1CCN(c2ccc(-n3cnn(CC)c3=O)cc2)CC1 (stereo not drawn) [Compound 148]
316 to 3160 nM | CCCNC(=O)C(c1ccccc1)C1CCN(c2ccc(-n3cnn(CCC)c3=O)cc2)CC1 (stereo not drawn) [Compound 149]
31.6 to 316 nM | CCCCn1ncn(-c2ccc(N3CCC(C(C(=O)NCCC)c4ccccc4)CC3)cc2)c1=O (stereo not drawn) [Compound 150]
31.6 to 316 nM | CCCCCn1ncn(-c2ccc(N3CCC(C(C(=O)NCCC)c4ccccc4)CC3)cc2)c1=O (stereo not drawn) [Compound 151]
316 to 3160 nM | C=CCn1ncn(-c2ccc(N3CCC(C(C(=O)NCCC)c4ccccc4)CC3)cc2)c1=O (stereo not drawn) [Compound 152]
31.6 to 316 nM | CCCNC(=O)C(c1ccccc1)C1CCN(c2ccc(-n3cnn(CC(C)C)c3=O)cc2)CC1 (stereo not drawn) [Compound 153]
31.6 to 316 nM | CCCNC(=O)C(c1ccccc1)C1CCN(c2ccc(-n3cnn(CC4CC4)c3=O)cc2)CC1 (stereo not drawn) [Compound 154]
31.6 to 316 nM | CCCNC(=O)C(c1ccccc1)C1CCN(c2ccc(-n3cnn(Cc4ccccc4)c3=O)cc2)CC1 (stereo not drawn) [Compound 155]
31.6 to 316 nM | CCCCn1ncn(-c2ccc(N3CCC(C(C(=O)NCc4ccccc4)c4ccccc4)CC3)cc2)c1=O (stereo not drawn) [Compound 156]
31.6 to 316 nM | CCCCCn1ncn(-c2ccc(N3CCC(C(C(=O)NCc4ccccc4)c4ccccc4)CC3)cc2)c1=O (stereo not drawn) [Compound 157]
31.6 to 316 nM | O=C(NCc1ccccc1)C(c1ccccc1)C1CCN(c2ccc(-n3cnn(Cc4ccccc4)c3=O)cc2)CC1 (stereo not drawn) [Compound 158]
316 to 3160 nM | COC(=O)C(c1ccccc1)N1CCN(c2ccc(-n3nc(C)n(C(C)C)c3=O)cc2)CC1 (stereo not drawn) [Compound 159]
316 to 3160 nM | CC(C)n1ncn(-c2ccc(N3CCN(CCCC(C(=O)Nc4ccccc4)c4ccccc4)CC3)cc2)c1=O (stereo not drawn) [Compound 160]
316 to 3160 nM | CCNC(=O)C(CCN1CCN(c2ccc(-n3cnn(C(C)C)c3=O)cc2)CC1)c1ccccc1 (stereo not drawn) [Compound 161]
316 to 3160 nM | CC(C)n1ncn(-c2ccc(N3CCN(CCC(C(=O)NCc4ccccc4)c4ccccc4)CC3)cc2)c1=O (stereo not drawn) [Compound 162]
31.6 to 316 nM | CCNC(=O)C(c1ccccc1)N1CCN(c2ccc(-n3cnn(C(C)C)c3=O)cc2)CC1 (stereo not drawn) [Compound 163]
31.6 to 316 nM | CCCNC(=O)C(c1ccccc1)N1CCN(c2ccc(-n3cnn(C(C)C)c3=O)cc2)CC1 (stereo not drawn) [Compound 164]
316 to 3160 nM | CC(C)n1ncn(-c2ccc(N3CCN(C(C(=O)NCc4ccccc4)c4ccccc4)CC3)cc2)c1=O (stereo not drawn) [Compound 165]
316 to 3160 nM | CC(C)n1ncn(-c2ccc(N3CCN(C(C(=O)NCC(F)(F)F)c4ccccc4)CC3)cc2)c1=O (stereo not drawn) [Compound 166]
316 to 3160 nM | Cn1ncn(-c2ccc(N3CCC(C(C(=O)NCc4ccccc4)c4ccccc4)CC3)cc2)c1=O (stereo not drawn) [Compound 167]
31.6 to 316 nM | CC(C)n1ncn(-c2ccc(N3CCC(C(C(=O)NCc4ccccc4)c4ccccc4)CC3)cc2)c1=O (stereo not drawn) [Compound 168]

IC50 | Compound
316 to 3160 nM | COC(=O)C(CCN1CCN(c2ccc(-n3cnn(C(C)C)c3=O)cc2)CC1)c1ccccc1 (stereo not drawn) [Compound 169]
316 to 3160 nM | CC(C)n1ncn(-c2ccc(N3CCN(C(C(=O)NCC(F)(F)F)c4ccccc4)CC3)nc2)c1=O (stereo not drawn) [Compound 170]
31.6 to 316 nM | COC(=O)C(c1ccccc1)N1CCC(c2ccc(-n3cnn(C(C)C)c3=O)cc2)CC1 (stereo not drawn) [Compound 171]
316 to 3160 nM | COC(=O)C(c1ccccc1)N1CCN(c2ccc(-n3cnn(C(C)C)c3=O)cc2)CC1 (stereo not drawn) [Compound 172]
31.6 to 316 nM | COC(=O)C(c1ccccc1)(c1ccccc1)N1CCN(c2ccc(-n3cnn(C(C)C)c3=O)cc2)CC1 [Compound 173]
31.6 to 316 nM | CCC(C)n1ncn(-c2ccc(N3CCN(C(C(=O)OC)c4ccccc4)CC3)cc2)c1=O (stereo not drawn) [Compound 174]
31.6 to 316 nM | CCNC(=O)C(c1ccccc1)N1CCN(c2ccc(-n3cnn(C(C)CC)c3=O)cc2)CC1 (stereo not drawn) [Compound 175]
31.6 to 316 nM | CCCC(C(=O)Nc1ccc2c(c1)CCC2)N1CCN(c2ccc(-n3cnn(C(C)C)c3=O)cc2)CC1 (stereo not drawn) [Compound 177]
31.6 to 316 nM | CCC(C)n1ncn(-c2ccc(N3CCN(C(C(=O)NCC(F)(F)F)c4ccccc4)CC3)cc2)c1=O (stereo not drawn) [Compound 178]
31.6 to 316 nM | C=CCn1ncn(-c2ccc(N3CCC(C(C(=O)NCc4ccccc4)c4ccccc4)CC3)cc2)c1=O (stereo not drawn) [Compound 180]
31.6 to 316 nM | CC(C)Cn1ncn(-c2ccc(N3CCC(C(C(=O)NCc4ccccc4)c4ccccc4)CC3)cc2)c1=O (stereo not drawn) [Compound 181]
31.6 to 316 nM | O=C(NCc1ccccc1)C(c1ccccc1)C1CCN(c2ccc(-n3cnn(CC4CC4)c3=O)cc2)CC1 (stereo not drawn) [Compound 182]
31.6 to 316 nM | O=C(NCc1ccccc1)C(c1ccccc1)C1CCN(c2ccc(-n3cnn(C/C=C/c4ccccc4)c3=O)cc2)CC1 (stereo not drawn) [Compound 183]
31.6 to 316 nM | COc1ccc(NC(=O)C(c2ccccc2)N2CCN(c3ccc(-n4cnn(C(C)C)c4=O)cc3)CC2)c(OC)c1 (stereo not drawn) [Compound 184]
316 to 3160 nM | COc1ccccc1NC(=O)C(c1ccccc1)N1CCN(c2ccc(-n3cnn(C(C)C)c3=O)cc2)CC1 (stereo not drawn) [Compound 185]
31.6 to 316 nM | CC(C)n1ncn(-c2ccc(N3CCN(C(C(=O)Nc4ccc(F)cc4)c4ccccc4)CC3)cc2)c1=O (stereo not drawn) [Compound 186]
316 to 3160 nM | CCOC(=O)C(c1ccccc1)N1CCN(c2ccc(-n3ccn(C(C)C)c3=O)cc2)CC1 (stereo not drawn) [Compound 189]
31.6 to 316 nM | CC(C)n1cnn(-c2ccc(N3CCN(C(C(=O)Nc4ccc5c(c4)CCC5)c4ccccc4)CC3)cc2)c1=O (stereo not drawn) [Compound 191]
31.6 to 316 nM | COC(=O)c1cccc(NC(=O)C(c2ccccc2)N2CCN(c3ccc(-n4cnn(C(C)C)c4=O)cc3)CC2)c1 (stereo not drawn) [Compound 192]
316 to 3160 nM | COC(=O)c1ccc(CNC(=O)C(c2ccccc2)N2CCN(c3ccc(-n4cnn(C(C)C)c4=O)cc3)CC2)cc1 (stereo not drawn) [Compound 196]
31.6 to 316 nM | CC(C)n1ncn(-c2ccc(N3CCN(C(C(=O)Nc4ccc5c(c4)-c4ccccc4C5)c4ccccc4)CC3)cc2)c1=O (stereo not drawn) [Compound 197]
316 to 3160 nM | CC(C)n1ncn(-c2ccc(N3CCN(C(C(=O)Nc4ccc5c(c4)nc(-c4ccccc4)n5C)c4ccccc4)CC3)cc2)c1=O (stereo not drawn) [Compound 199]
31.6 to 316 nM | CC(C)n1ncn(-c2ccc(N3CCN(C(C(=O)Nc4ccc5c(c4)OCO5)c4ccccc4)CC3)cc2)c1=O (stereo not drawn) [Compound 200]

IC50 | Compound
31.6 to 316 nM | CC(C)n1ncn(-c2ccc(N3CCN(C(C(=O)Nc4ccc5c(c4)NCC5)c4ccccc4)CC3)cc2)c1=O (stereo not drawn) [Compound 201]
31.6 to 316 nM | CC(=O)N1CCc2ccc(NC(=O)C(c3ccccc3)N3CCN(c4ccc(-n5cnn(C(C)C)c5=O)cc4)CC3)cc21 (stereo not drawn) [Compound 202]
< 31.6 nM | CC(C)N1CCN(c2ccc(N3CCN(C(C(=O)Nc4ccc5c(c4)CCC5)c4ccccc4)CC3)cc2)C1=O (stereo not drawn) [Compound 203]
31.6 to 316 nM | COC(=O)C(c1ccccc1)N1CCN(c2ccc(-n3cnn(C(C)c4ccccc4)c3=O)cc2)CC1 (stereo not drawn) [Compound 204]
< 31.6 nM | CC(C)n1ccn(-c2ccc(N3CCN(C(C(=O)Nc4ccc5c(c4)CCC5)c4ccccc4)CC3)cc2)c1=O (stereo not drawn) [Compound 205]
31.6 to 316 nM | CCOC(=O)c1ccccc1NC(=O)C(c1ccccc1)N1CCN(c2ccc(-n3cnn(C(C)C)c3=O)cc2)CC1 (stereo not drawn) [Compound 206]
< 31.6 nM | CCC(C)n1nc(C)n(-c2ccc(N3CCC(C(C(=O)Nc4ccc5c(c4)CCC5)c4ccccc4)CC3)cc2)c1=O (stereo not drawn) [Compound 207]
316 to 3160 nM | CC(c1ccccc1)n1ncn(-c2ccc(N3CCN(C(C(=O)Nc4ccc5c(c4)CCC5)c4ccccc4)CC3)cc2)c1=O (stereo not drawn) [Compound 208]
< 31.6 nM | O=C(Nc1ccc2c(c1)CCC2)C(c1ccccc1)C1CCN(c2ccc(-n3nc4ccccn4c3=O)cc2)CC1 (stereo not drawn) [Compound 211]
< 31.6 nM | O=C(Nc1ccc2c(c1)CCC2)C(c1ccccc1)C1CCN(c2ccc(-n3ncn(Cc4ccccc4)c3=O)cc2)CC1 (stereo not drawn) [Compound 212]
316 to 3160 nM | CC(C)n1ncn(-c2ccc(N3CCC(CC(=O)Nc4ccc5c(c4)CCC5)CC3)cc2)c1=O [Compound 213]
< 31.6 nM | Cc1cc(N2CCN(C(C(=O)Nc3ccc4c(c3)CCC4)c3ccccc3)CC2)ccc1-n1ccn(C(C)C)c1=O (stereo not drawn) [Compound 214]
< 31.6 nM | CC(C)n1ncn(-c2ccc(N3CCN(C(C(=O)Nc4ccc5c(c4)CCC5)c4ccccc4)CC3)c(Cl)c2)c1=O (stereo not drawn) [Compound 215]
31.6 to 316 nM | CC(C)n1ncn(-c2ccc(N3CCN(C(C(=O)Nc4ccc5c(c4)CCC5)c4ccccc4)CC3)c(F)c2)c1=O (stereo not drawn) [Compound 216]
31.6 to 316 nM | CCOC(=O)C(c1ccccc1)N1CCN(c2ccc(-n3cnn(C(C)C)c3=O)c(C)c2)CC1 (stereo not drawn) [Compound 217]
< 31.6 nM | Cc1cc(N2CCN(C(C(=O)Nc3ccc4c(c3)CCC4)c3ccccc3)CC2)ccc1-n1cnn(C(C)C)c1=O (stereo not drawn) [Compound 218]
316 to 3160 nM | CCOC(=O)C(c1ccccc1)N1CCN(c2ccc(N3CCN(C(C)C)C3=O)c(C)c2)CC1 (stereo not drawn) [Compound 219]
< 31.6 nM | Cc1cc(N2CCN(C(C(=O)Nc3ccc4c(c3)CCC4)c3ccccc3)CC2)ccc1N1CCN(C(C)C)C1=O (stereo not drawn) [Compound 220]
31.6 to 316 nM | CCOC(=O)C(c1ccccc1)N1CCC(c2ccc(-n3ccn(C(C)c4ccccc4)c3=O)cc2)CC1 (stereo not drawn) [Compound 221]
31.6 to 316 nM | CCOC(=O)C(c1ccccc1)C1CCN(c2ccc(-n3ccn(C(C)c4ccccc4)c3=O)cc2)CC1 (stereo not drawn) [Compound 222]
316 to 3160 nM | CCOC(=O)C(c1ccccc1)N1CCC(c2ccc(-n3ccn([C@@H](C)c4ccc(F)cc4)c3=O)cc2)CC1 (stereo partly drawn) [Compound 223]
31.6 to 316 nM | CCOC(=O)C(c1ccccc1)N1CCC(c2ccc(-n3ccn([C@H](C)c4ccc(F)cc4)c3=O)cc2)CC1 (stereo partly drawn) [Compound 224]

Compound | IC50
CC(C)n1ncn(-c2ccc(N3CCN(CCC(C(=O)N(C)C)(c4ccccc4)c4ccccc4)CC3)cc2)c1=O [Compound 147] | 316 to 3160 nM
